This is an account of results in ChEMBL document CHEMBL1122947, “Fluorine-containing amino acids and their derivatives. 4. Synthesis and antibacterial activity of threo and erythro 1-fluorodehydroxylated chloramphenicol analogues” (1985).

One experiment concerns Pseudomonas aeruginosa. Briefly: In vitro antibacterial activity against Pseudomonas aeruginosa. Format: functional.
For the next experiment, the system named is Klebsiella pneumoniae. Briefly: In vitro antibacterial activity against Klebsiella pneumoniae. It is filed as functional.
The next experiment deals with Trichophyton benhamiae. Description: In vitro antifungal activity against Trichophyton asteroides. Format: functional.
Another experiment relates to Aspergillus fumigatus. Briefly: In vitro antifungal activity against Aspergillus fumigatus. It is filed as functional.
A further experiment has as its system Streptococcus pyogenes. Briefly: In vitro antibacterial activity against Streptococcus pyogenes. It is filed as functional.
The test system of a further experiment is Staphylococcus aureus. Briefly: In vitro antibacterial activity against Staphylococcus aureus. It is filed as functional.
The next experiment concerns Trichophyton asteroides. Briefly: In vitro antifungal activity against Trichophyton asteroides.
A further experiment relates to Escherichia coli. Briefly: In vitro antibacterial activity against Escherichia coli. Format: functional.
[1] abbreviates: Klebsiella pneumoniae, read-out: MIC.

Values after ≈ are worked out from the molar mass of the structure shown.

`O=C(NC(CO)C(F)c1ccccc1[N+](=O)[O-])C(Cl)Cl` (stereo not drawn): the MIC in the experiment on Pseudomonas aeruginosa, in the experiment with Klebsiella pneumoniae (setting [1]), with Trichophyton benhamiae, against Aspergillus fumigatus, in the experiment with Streptococcus pyogenes and against Staphylococcus aureus was greater than 100 µg/mL each time. The MIC against Trichophyton asteroides and with Escherichia coli was greater than 100 µg/mL throughout.

With `O=C(NC(CO)C(F)c1cccc([N+](=O)[O-])c1)C(Cl)Cl` (stereo not drawn), the MIC against Pseudomonas aeruginosa, in the experiment with Klebsiella pneumoniae (setting [1]), against Trichophyton benhamiae, against Aspergillus fumigatus, against Streptococcus pyogenes and against Staphylococcus aureus was greater than 100 µg/mL in each case. The MIC against Trichophyton asteroides and against Escherichia coli was greater than 100 µg/mL in each case.

`O=C(NC(CO)C(F)c1ccccc1)C(Cl)Cl` (stereo not drawn): the minimal inhibitory concentration (MIC) against Pseudomonas aeruginosa, in the experiment on Klebsiella pneumoniae (setting [1]), with Trichophyton benhamiae, in the experiment on Aspergillus fumigatus, against Streptococcus pyogenes and in the experiment with Staphylococcus aureus was greater than 100 µg/mL in each case. In addition, the MIC against Trichophyton asteroides and in the experiment on Escherichia coli was greater than 100 µg/mL throughout.

In the experiment with Klebsiella pneumoniae, `O=C(NC(CO)C(F)c1ccc([N+](=O)[O-])cc1)C(Cl)Cl` (stereo in doubt; 3) displayed an MIC greater than 100 µg/mL.

As for `O=C(NC(CO)C(F)c1ccc([N+](=O)[O-])cc1)C(Cl)Cl` (stereo in doubt; 11), the minimal inhibitory concentration (MIC) with Pseudomonas aeruginosa was greater than 100 µg/mL; in the experiment with Klebsiella pneumoniae (setting [1]), 50 µg/mL (≈ 154 µM); in the experiment on Trichophyton benhamiae, greater than 100 µg/mL; against Aspergillus fumigatus it was greater than 100 µg/mL; against Streptococcus pyogenes it was greater than 100 µg/mL; in the experiment on Staphylococcus aureus, greater than 100 µg/mL. For the same compound, the MIC with Trichophyton asteroides and in the experiment on Escherichia coli was greater than 100 µg/mL each time.
